Test results reported in patent publication US8445207B2, “Genes based on thalidomide, valproic acid and methotrexate treatment for screening of drug inducing teratogenicity and screening method using thereof” (priority 2009, dated 2013).

System: JEG-3 (human placental choriocarcinoma cell line)
Test: Oligo microarray gene expression in drug-treated JEG-3 (Cy5 treated / Cy3 control)
Assay type: cell-based
Protocol: Thalidomide, valproic acid, and methotrexate were treated to human placental choriocarcinoma cell line at the concentrations determined above (Inhibition concentration: the concentration that can kill approximately 30% of the total cells, that is the concentration of 70% viability, IC30). mRNA was extracted from the drug treated cell line, followed by synthesis of cDNA which was labeled with Cy5. The non-treated control was labeled with Cy3. The fluorescence labeled cDNA was hybridized with 41K (thalidomide), 44K (valproic acid, methotrexate) human whole genome oligomicroarray chips (Agilent, USA), followed by fluorescent image scanning to analyze gene expression patterns (see FIG. 4). Volcano Plot of each substance was also attached. Y axis indicates probability (generally converted by −log 10). X axis indicates differential expression, which is presented by log-ratio.
Total RNA was separated from the treated cell by using trizol reagent (Invitrogen Life Technologies, USA) according to the manufacture's instructions, followed by purification using RNeasy mini kit (Qiagen, USA). Genomic DNA was eliminated during RNA purification using RNase-free DNase set (Qiagen, USA).
30 μg of the total RNA obtained above and 2 μg (1 μg/μl) of oligo (dT) primer were mixed, followed by reaction at 65° C. for 10 minutes. Annealing was performed in ice right after the reaction. Reagents were prepared as shown in Table 1 for reverse transcription of the annealed RNA.
The total RNA separated from the control group JEG-3 cells was labeled with Cy3-dUTP (green) and the total RNA separated from the experiment group JEG-3 cells treated with thalidomide, valproic acid and methotrexate was labeled with Cy5-dUTP (red). At this time, the two samples were mixed and purified by Microcon YM-30 column (Millipore, USA).
Hybridization and washing were performed by the manufacturer's (GenoCheck, Korea) instructions. Particularly, hybridization was performed in a 62° C. oven for 12 hours. As a DNA microarray chip, 44 k whole human genome oligo microarray (Agilent, USA) was used. After washing (2 minutes with 2×SSC/0.1% SDS, three minutes with 1×SSC, 2 minutes with 0.2×SSC), the slide was dried by centrifugation at 800 rpm for 3 minutes.
Hybridization image on the slide was scanned with Genepix 4000B (Axon Instruments, USA). Fluorescence image of the chip on which non-hybridized genes had been washed out was obtained by using laser fluorescence scanner. Green fluorescence image indicates the activity of gene specifically expressed in the control group and red fluorescence image indicates the activity of gene specifically expressed in the experimental group. […] Scanned image was analyzed by using GenePix 4.1 software (Axon Instruments, USA) to calculate gene expression rate.

[1] = out of 21797 (thalidomide), 21921 (valproic acid), 24006 (methotrexate) genes
[2] = treated at IC30, up-regulated gene, (h) Nervous system development

How did the “cDNA microarray (Cy3/Cy5 ratio), KIAA0310” value (GenBank AB002308) turn out when `CCCC(CCC)C(=O)O` [VPA, valproic acid] was run?
Its value is 1.59.

What about the “cDNA microarray (Cy3/Cy5 ratio), ATP10B” value (GenBank AB018258) of the same compound?
Its value is 2.03.

What about the “cDNA microarray (Cy3/Cy5 ratio), TTF2” value (GenBank AB209845) of the same compound?
The value was 1.81.

What about the “cDNA microarray (Cy3/Cy5 ratio), TncRNA” value (GenBank AF001893) of the same compound?
The value was 3.61.

And the “cDNA microarray (Cy3/Cy5 ratio), C4orf19” value (GenBank AK001879)?
Its value is 1.87.

What about the “cDNA microarray (Cy3/Cy5 ratio), CYP19A1” value (GenBank AK023571) of the same compound?
The value was 1.78.

And the “cDNA microarray (Cy3/Cy5 ratio), SLC40A1” value (GenBank AK023574)?
Its value is 1.7.

What about the “cDNA microarray (Cy3/Cy5 ratio), ABTB2” value (GenBank AK095632) of the same compound?
Its value is 1.6.

And the “cDNA microarray (Cy3/Cy5 ratio), TUBB3” value (GenBank AK122757)?
The value was 1.7.

And the “cDNA microarray (Cy3/Cy5 ratio), MGC27016” value (GenBank AK125877)?
The value was 2.62.

What about the “cDNA microarray (Cy3/Cy5 ratio), GLCCI1” value (GenBank AK126731) of the same compound?
The value was 2.27.

What about the “cDNA microarray (Cy3/Cy5 ratio), TFCP2L4” value (GenBank BC036890) of the same compound?
The value was 3.12.

And the “cDNA microarray (Cy3/Cy5 ratio), RGS2” value (GenBank BC042755)?
Its value is 3.04.

And the “cDNA microarray (Cy3/Cy5 ratio), SIAT7A” value (GenBank BC063830)?
The value was 1.69.

And the “cDNA microarray (Cy3/Cy5 ratio), B7-H4” value (GenBank BX648021)?
Its value is 0.1.

And the “cDNA microarray (Cy3/Cy5 ratio), COBLL1” value (GenBank BX649112)?
The value was 1.52.

What about the “cDNA microarray (Cy3/Cy5 ratio), CGA” value (GenBank NM_000735) of the same compound?
Its value is 2.14.

And the “cDNA microarray (Cy3/Cy5 ratio), PARP1” value (GenBank NM_001618)?
Its value is 0.61.

What about the “cDNA microarray (Cy3/Cy5 ratio), SERPINB9” value (GenBank NM_004155) of the same compound?
The value was 3.02.

And the “cDNA microarray (Cy3/Cy5 ratio), ST8SIA4” value (GenBank NM_005668)?
The value was 1.79.

What about the “cDNA microarray (Cy5 treated / Cy3 control ratio), ABL1” value (GenBank NM_007313) of the same compound?
The value was 0.3.

And the “cDNA microarray (Cy3/Cy5 ratio), GRLF1” value (GenBank NM_024342)?
Its value is 0.55.

And the “cDNA microarray (Cy3/Cy5 ratio), LGP1” value (GenBank NM_032484)?
The value was 0.52.

And the “cDNA microarray (Cy3/Cy5 ratio), NCOA3” value (GenBank NM_181659)?
The value was 1.62.

And the “cDNA microarray (Cy3/Cy5 ratio), SR140” value (GenBank XM_031553)?
The value was 0.36.

What about the “cDNA microarray (Cy3/Cy5 ratio), SLC7A8” value (GenBank Y18483) of the same compound?
The value was 2.48.

What about the “Ratio of intermediate value, FLJ13855” value (Genbank AK091644, drug at IC30) of the same compound?
Its value is 0.44.

And the “Ratio of intermediate value, GRLF1” value (Genbank BI494022, NM_024342, drug at IC30)?
Its value is 0.55.

What about the “Ratio of intermediate value, B7-H4” value (Genbank BX648021, drug at IC30) of the same compound?
The value was 0.10.

And the “Ratio of intermediate value, PARP1” value (Genbank NM_001618, drug at IC30)?
The value was 0.61.

And the “Ratio of intermediate value, ABL1” value (Genbank NM_007313, drug at IC30)?
The value was 0.30.

And the “Ratio of intermediate value, LGP1” value (Genbank NM_032484, drug at IC30)?
Its value is 0.52.

What about the “Ratio of intermediate value, SR140” value (Genbank XM_031553, drug at IC30) of the same compound?
Its value is 0.36.

What about the “genes down-regulated (ratio of intermediate value less than 0.666)” value (JEG-3, drug at IC30, 48 hours) of the same compound?
The value was 5.5%.

What about the “genes up-regulated (ratio of intermediate value more than 1.5)” value (JEG-3, drug at IC30, 48 hours) of the same compound?
Its value is 5.54%.

And the “number of genes down-regulated” value [1]?
The value was 1196.

What about the “number of genes up-regulated” value [1] of the same compound?
The value was 1215.

And the “Ratio of intermediate value, gene ALDH5A1 (NM_170740, ALDEHYDE DEHYDROGENASE 5 FAMILY, MEMBER A1 (SUCCINATE-SEMIALDEHYDE DEHYDROGENASE))” value [2]?
Its value is 4.68.

And the “Ratio of intermediate value, gene ALS2 (NM_020919, AMYOTROPHIC LATERAL SCLEROSIS 2 (JUVENILE))” value [2]?
Its value is 2.40.

What about the “Ratio of intermediate value, gene C22orf9 (AY509035, ROUND-ABOUT, AXON GUIDANCE RECEPTOR, HOMOLOG 3 (DROSOPHILA))” value [2] of the same compound?
Its value is 2.30.

What about the “Ratio of intermediate value, gene DLX2 (AB208823, NM_004405, DISTAL-LESS HOMEOBOX 2)” value [2] of the same compound?
Its value is 3.18.

And the “Ratio of intermediate value, gene DPYSL2 (NM_001386, DIHYDROPYRIMIDINASE-LIKE 2)” value [2]?
The value was 3.34.

And the “Ratio of intermediate value, gene DPYSL5 (AL713706, DIHYDROPYRIMIDINASE-LIKE 5)” value [2]?
Its value is 2.57.

What about the “Ratio of intermediate value, gene EDG1 (BC018650, ENDOTHELIAL DIFFERENTIATION, SPHINGOLIPID G-PROTEIN-COUPLED RECEPTOR, 1)” value [2] of the same compound?
Its value is 2.34.

And the “Ratio of intermediate value, gene EFCBP1 (L20470, VERY LOW DENSITY LIPOPROTEIN RECEPTOR)” value [2]?
Its value is 2.10.

What about the “Ratio of intermediate value, gene FABP7 (NM_001446, FATTY ACID BINDING PROTEIN 7, BRAIN)” value [2] of the same compound?
The value was 9.51.

What about the “Ratio of intermediate value, gene FLJ20489 (AK056650, IMMUNOGLOBULIN SUPERFAMILY, MEMBER 9)” value [2] of the same compound?
Its value is 2.50.

And the “Ratio of intermediate value, gene FLJ31842 (AY643499, HEXOSAMINIDASE B (BETA POLYPEPTIDE))” value [2]?
The value was 2.38.

And the “Ratio of intermediate value, gene GJA1 (NM_000165, GAP JUNCTION PROTEIN, ALPHA 1, 43 KDA (CONNEXIN 43))” value [2]?
The value was 4.30.

And the “Ratio of intermediate value, gene GRB14 (BM906235, INHIBITOR OF DNA BINDING 3, DOMINANT NEGATIVE HELIX-LOOP-HELIX PROTEIN)” value [2]?
Its value is 4.33.
